Source: paper PMC5298231, “The Malaria Parasite's Lactate Transporter PfFNT Is the Target of Antiplasmodial Compounds Identified in Whole Cell Phenotypic Screens” (PLoS Pathogens, 2017)
Where two headings read alike, the source gives them in different places.

Tested on: erythrocytes infected with 3D7 trophozoites
Assay type: cell-based, Plasmodium falciparum
Conditions: for Folate level, Log2 (treated vs control) / Geranylgeranyl pyrophosphate level, Log2 (treated vs control): sheet Log2; for Folate level, Log2 (treated vs control): medMz 440.132; for Geranylgeranyl pyrophosphate level, Log2 (treated vs control): medMz 449.186; for Ratio, Farnesyl diphosphate: metabolite Farnesyl diphosphate (medMz 381.123); for Ratio, Folate: metabolite Folate (medMz 440.132); for Ratio, Geranylgeranyl pyrophosphate: metabolite Geranylgeranyl pyrophosphate (medMz 449.186)

COc1ccc2c(c1)OC(O)(C(F)(F)C(F)(F)F)CC2=O (stereo not shown) [MMV007839]
NADH log2 ratio (+MMV007839/-MMV007839) (Av 6hr, 6 μM): -2.783
NADP+ log2 ratio (+MMV007839/-MMV007839) (Av 6hr, 6 μM): -0.3285
Octoluse Bisphosphate log2 ratio (+MMV007839/-MMV007839) (Av 6hr, 6 μM): 0.9087
Ornithine log2 ratio (+MMV007839/-MMV007839) (Av 6hr, 6 μM): -0.4177
Orotate log2 ratio (+MMV007839/-MMV007839) (Av 6hr, 6 μM): -1.6355
Orotidine 5-phosphate log2 ratio (+MMV007839/-MMV007839) (Av 6hr, 6 μM): -1.249
Orotidine log2 ratio (+MMV007839/-MMV007839) (Av 6hr, 6 μM): -0.6749
PAEF log2 ratio (+MMV007839/-MMV007839) (Av 6hr, 6 μM): 0.8061
PAVH log2 ratio (+MMV007839/-MMV007839) (Av 6hr, 6 μM): -0.07734
PD log2 ratio (+MMV007839/-MMV007839) (Av 6hr, 6 μM): 1.197
PDAV log2 ratio (+MMV007839/-MMV007839) (Av 6hr, 6 μM): 1.2
PE log2 ratio (+MMV007839/-MMV007839) (Av 6hr, 6 μM): 1.699
PEE log2 ratio (+MMV007839/-MMV007839) (Av 6hr, 6 μM): 1.042
PHF log2 ratio (+MMV007839/-MMV007839) (Av 6hr, 6 μM): 0.9826
PPVQ log2 ratio (+MMV007839/-MMV007839) (Av 6hr, 6 μM): -0.2514
PVNF log2 ratio (+MMV007839/-MMV007839) (Av 6hr, 6 μM): 0.6194
PVQ log2 ratio (+MMV007839/-MMV007839) (Av 6hr, 6 μM): 1.502
PVQA log2 ratio (+MMV007839/-MMV007839) (Av 6hr, 6 μM): -0.1116
Pantothenate log2 ratio (+MMV007839/-MMV007839) (Av 6hr, 6 μM): -0.4384
Phenylalanine log2 ratio (+MMV007839/-MMV007839) (Av 6hr, 6 μM): 0.1437
Phosphoenolpyruvate log2 ratio (+MMV007839/-MMV007839) (Av 6hr, 6 μM): 0.09862
Pipecolate log2 ratio (+MMV007839/-MMV007839) (Av 6hr, 6 μM): 1.035
Proline log2 ratio (+MMV007839/-MMV007839) (Av 6hr, 6 μM): 0.2232
Pyridoxine log2 ratio (+MMV007839/-MMV007839) (Av 6hr, 6 μM): 0.219
Pyruvate log2 ratio (+MMV007839/-MMV007839) (Av 6hr, 6 μM): 2.1785
Ribose-5-phosphate log2 ratio (+MMV007839/-MMV007839) (Av 6hr, 6 μM): 0.5462
S-Adenosyl-L-homocysteine log2 ratio (+MMV007839/-MMV007839) (Av 6hr, 6 μM): -0.1116
SDGLA log2 ratio (+MMV007839/-MMV007839) (Av 6hr, 6 μM): -0.7918
SFGD log2 ratio (+MMV007839/-MMV007839) (Av 6hr, 6 μM): -0.1482
Sedoheptoluse bisphosphate log2 ratio (+MMV007839/-MMV007839) (Av 6hr, 6 μM): -0.5568
Sedoheptulose-1/7-phosphate log2 ratio (+MMV007839/-MMV007839) (Av 6hr, 6 μM): 0.1885
Serine log2 ratio (+MMV007839/-MMV007839) (Av 6hr, 6 μM): 0.02139
Succinate log2 ratio (+MMV007839/-MMV007839) (Av 6hr, 6 μM): 0.1816
Succinate semialdehyde log2 ratio (+MMV007839/-MMV007839) (Av 6hr, 6 μM): -0.438
TNVK log2 ratio (+MMV007839/-MMV007839) (Av 6hr, 6 μM): -0.1213
Threonine log2 ratio (+MMV007839/-MMV007839) (Av 6hr, 6 μM): 0.6908
Tryptophan log2 ratio (+MMV007839/-MMV007839) (Av 6hr, 6 μM): -0.04867
Tyrosine log2 ratio (+MMV007839/-MMV007839) (Av 6hr, 6 μM): 0.1841
UDP log2 ratio (+MMV007839/-MMV007839) (Av 6hr, 6 μM): -0.5016
UDP-N-acetyl-D-glucosamine log2 ratio (+MMV007839/-MMV007839) (Av 6hr, 6 μM): -0.184
UDP-glucose log2 ratio (+MMV007839/-MMV007839) (Av 6hr, 6 μM): 0.0071
UMP log2 ratio (+MMV007839/-MMV007839) (Av 6hr, 6 μM): -0.08541
Uracil log2 ratio (+MMV007839/-MMV007839) (Av 6hr, 6 μM): -0.6376
Uric Acid log2 ratio (+MMV007839/-MMV007839) (Av 6hr, 6 μM): -0.1851
VD log2 ratio (+MMV007839/-MMV007839) (Av 6hr, 6 μM): 1.833
Valine log2 ratio (+MMV007839/-MMV007839) (Av 6hr, 6 μM): 0.1675
Xanthine log2 ratio (+MMV007839/-MMV007839) (Av 6hr, 6 μM): -0.5471
dADP log2 ratio (+MMV007839/-MMV007839) (Av 6hr, 6 μM): -0.4329
dATP log2 ratio (+MMV007839/-MMV007839) (Av 6hr, 6 μM): 0.01926
dCDP log2 ratio (+MMV007839/-MMV007839) (Av 6hr, 6 μM): 0.5589
dGMP log2 ratio (+MMV007839/-MMV007839) (Av 6hr, 6 μM): -0.355
dTMP log2 ratio (+MMV007839/-MMV007839) (Av 6hr, 6 μM): 0.4667
dTTP log2 ratio (+MMV007839/-MMV007839) (Av 6hr, 6 μM): 0.06317
dUMP log2 ratio (+MMV007839/-MMV007839) (Av 6hr, 6 μM): 1.053
myo-Inositol log2 ratio (+MMV007839/-MMV007839) (Av 6hr, 6 μM): -0.254
sn-Glycerol 3-phosphate log2 ratio (+MMV007839/-MMV007839) (Av 6hr, 6 μM): 1.275
sn-glycero-3-Phospho-1-inositol log2 ratio (+MMV007839/-MMV007839) (Av 6hr, 6 μM): 0.1242
Hexose-phosphate log2 ratio (+MMV007839/-MMV007839) (Av 6hr, 6 μM, medRt 15.0954): -0.2639
6-Phospho-D-gluconate log2 ratio (+MMV007839/-MMV007839) (Av 6hr, 6 μM, medRt 16.8944): -0.736
Hexose-phosphate log2 ratio (+MMV007839/-MMV007839) (Av 6hr, 6 μM, medRt 17.0788): -1.183
6-Phospho-D-gluconate log2 ratio (+MMV007839/-MMV007839) (Av 6hr, 6 μM, medRt 17.4636): -0.3794
Folate level, Log2 (treated vs control) (Exp1, 1hr): -0.2263
Geranylgeranyl pyrophosphate level, Log2 (treated vs control) (Exp1, 1hr): -0.6569
Folate level, Log2 (treated vs control) (Exp1, 3hr): -0.3477
Geranylgeranyl pyrophosphate level, Log2 (treated vs control) (Exp1, 3hr): -0.8295
Folate level, Log2 (treated vs control) (Exp1, 6hr): -0.6125
Geranylgeranyl pyrophosphate level, Log2 (treated vs control) (Exp1, 6hr): -0.9068
Folate level, Log2 (treated vs control) (Exp2, 1hr): -0.1779
Geranylgeranyl pyrophosphate level, Log2 (treated vs control) (Exp2, 1hr): -0.5207
Folate level, Log2 (treated vs control) (Exp2, 3hr): -0.4245
Geranylgeranyl pyrophosphate level, Log2 (treated vs control) (Exp2, 3hr): -0.4872
Folate level, Log2 (treated vs control) (Exp2, 6hr): -0.3923
Geranylgeranyl pyrophosphate level, Log2 (treated vs control) (Exp2, 6hr): -0.5435
Folate level, Log2 (treated vs control) (Exp3, 1hr): -0.2907
Geranylgeranyl pyrophosphate level, Log2 (treated vs control) (Exp3, 1hr): -0.5583
Folate level, Log2 (treated vs control) (Exp3, 3hr): -0.3083
Geranylgeranyl pyrophosphate level, Log2 (treated vs control) (Exp3, 3hr): -0.7313
Folate level, Log2 (treated vs control) (Exp3, 6hr): -0.4777
Geranylgeranyl pyrophosphate level, Log2 (treated vs control) (Exp3, 6hr): -0.686
Ratio, Farnesyl diphosphate (Exp1_1hr): 1.012
Ratio, Farnesyl diphosphate (Exp1_3hr): 0.9128
Ratio, Farnesyl diphosphate (Exp1_6hr): 0.7497
Ratio, Farnesyl diphosphate (Exp2_1hr): 1.018
Ratio, Farnesyl diphosphate (Exp2_3hr): 1.006
Ratio, Farnesyl diphosphate (Exp2_6hr): 0.9903
Ratio, Farnesyl diphosphate (Exp3_1hr): 0.9698
Ratio, Farnesyl diphosphate (Exp3_3hr): 1
Ratio, Farnesyl diphosphate (Exp3_6hr): 0.7551
Ratio, Folate (Exp1_1hr): 0.8548
Ratio, Folate (Exp1_3hr): 0.7858
Ratio, Folate (Exp1_6hr): 0.6541
Ratio, Folate (Exp2_1hr): 0.884
Ratio, Folate (Exp2_3hr): 0.7451
Ratio, Folate (Exp2_6hr): 0.7619
Ratio, Folate (Exp3_1hr): 0.8175
Ratio, Folate (Exp3_3hr): 0.8076
Ratio, Folate (Exp3_6hr): 0.7181
Ratio, Geranylgeranyl pyrophosphate (Exp1_1hr): 0.6342
Ratio, Geranylgeranyl pyrophosphate (Exp1_3hr): 0.5627
Ratio, Geranylgeranyl pyrophosphate (Exp1_6hr): 0.5334
Ratio, Geranylgeranyl pyrophosphate (Exp2_1hr): 0.697
Ratio, Geranylgeranyl pyrophosphate (Exp2_3hr): 0.7134
Ratio, Geranylgeranyl pyrophosphate (Exp2_6hr): 0.6861
Ratio, Geranylgeranyl pyrophosphate (Exp3_1hr): 0.6791
Ratio, Geranylgeranyl pyrophosphate (Exp3_3hr): 0.6023
Ratio, Geranylgeranyl pyrophosphate (Exp3_6hr): 0.6216
